In patent publication US9676752B2, “Imidazolidine-2,4-dione derivatives” (IPSEN PHARMA S.A.S., priority 2013, dated 2017):
Values after ≈ are worked out from the molar mass of the structure shown.

Assays:
[1] = tested on: human prostate cancer cells; details: agonist activity in place of antagonist activity; cited from earlier work
[2] = tested on: LNCaP; test: Anti-proliferative activity on LNCaP in complete medium; format: cell-based; details: Homo sapiens, 144 h incubation, Cell-Titer-Glow
Experimental: 1. Anti-Proliferative Activity on LNCaP in Complete Medium
The anti-proliferative activity of the compounds of the present invention is determined on LNCaP in complete medium by applying the following experimental procedure:
The LNCaP cell type (ATCC, 1740) originates from a prostate carcinoma. This line expresses the androgen receptor and is hormone-dependent.
Maintenance of the LNCaP line is carried out in complete culture medium: RPMI, 10% of fetal calf serum, 2 mM glutamine, 100 U/ml penicillin, 0.1 mg/ml of streptomycin and 0.01M HEPES, 1 mM sodium pyruvate, […] of D-glucose. • Seeding the plates: The LNCaP line is seeded at 20,000 cells/well in 90 μl of complete medium in 96-well plates coated with poly-D-lysine (Biocoat, Costar). • Treatment of the cells: 24 h after the seeding, the cells are treated with 10 μl/well of compound diluted in the culture medium. The concentrations used are the following: 1 nM/10/30/100/300/1000/3000/10,000 nM. The cells are incubated for 144 h at 37° C., 5% CO2. • Reading: After incubation for 6 days, cell proliferation was determined by Cell-Titer-Glow (CTG) Luminescent Cell Viability Assay. • Results: The experiments are carried out in duplicate and the best compounds are tested twice. A concentration value inhibiting the cell proliferation by 50% (IC50) is calculated.

[3] = Evaluation of solubility in potassium phosphate buffer pH 7.4; format: physicochemical; details: aqueous buffer, kinetic from dmso stock; 100 mM potassium phosphate buffer pH 7.4, target 10 μM, 0.1% DMSO, 1 hour room temperature, LC-MS/MS
Experimental: Evaluation of Solubility:
Test compounds were prepared as stock solutions at […] in DMSO. The stock solutions were diluted, in duplicate, into 100 mM potassium phosphate buffer (pH 7.4) to a target concentration of 10 μM with a final DMSO concentration of 0.1%. The solutions were shaken at 1000 rpm for 1 hour at room temperature followed by centrifugation for 10 minutes at 1200 rpm to precipitate un-dissolved particles. The supernatants were transferred to new tubes and the samples were further prepared as follows: • Undiluted: 5 μL of supernatant to 95 μL of ACN containing internal standard (IS) • 1:10 diluted: 10 μL of the supernatant into 90 μL K-buffer, mix, then transfer 5 μL of 1:10 diluted samples to 95 μL ACN containing IS • 1:100 diluted: 10 μL of the supernatant into 990 μL K-buffer, mix, then transfer 5 μL of 1:100 diluted samples to 95 μL of ACN containing IS
Samples (undiluted, 1:10 diluted, and 1:100 diluted) along with the standards were analyzed by LC-MS/MS.

[4] = tested on: VCaP; test: Anti-proliferative activity on VCaP in complete medium; format: cell-based; details: Homo sapiens, 216 h, Cell-Titer-Glow, reading after 9 days
Experimental: (§1) 3. Anti-Proliferative Activity on VCaP in Complete Medium • The cells of the VCaP line (ATCC CRL-2876) are seeded at 20000 cells/well in 90 μl of complete medium in 96-well plates coated with poly-D-lysine (Biocoat, Costar). • Treatment of the cells: 24 h after the seeding, the cells are treated with 10 μl/well of compound diluted in the culture medium. The concentrations used are the following: 1 nM/10/30/100/300/1000/3000/10,000 nM. The cells are incubated for […] at 37° C., 5% CO2. • Reading: After incubation for 9 days, cell proliferation was determined by Cell-Titer-Glow (CTG) Luminescent Cell Viability Assay • Results: The experiments are carried out in duplicate and the best compounds are tested twice. A concentration value inhibiting the cell proliferation by 50% (IC50) is calculated.

[5] = molecular target: T1, androgen receptor (Homo sapiens, UniProt P10275, T878A); test: Measurement of protein expression of the androgen receptor in LNCaP cells (AR ELISA); format: cell-based; details: 3 days treatment, whole cell protein, AR ELISA kit; read-out: IC50 AR destruction in LNCaP
T1 construct: This line expresses the androgen receptor and is hormone-dependent; endogenous in cells; host or cells: LNCaP (ATCC, 1740)
T1 sequence (P10275 1-920 T878A): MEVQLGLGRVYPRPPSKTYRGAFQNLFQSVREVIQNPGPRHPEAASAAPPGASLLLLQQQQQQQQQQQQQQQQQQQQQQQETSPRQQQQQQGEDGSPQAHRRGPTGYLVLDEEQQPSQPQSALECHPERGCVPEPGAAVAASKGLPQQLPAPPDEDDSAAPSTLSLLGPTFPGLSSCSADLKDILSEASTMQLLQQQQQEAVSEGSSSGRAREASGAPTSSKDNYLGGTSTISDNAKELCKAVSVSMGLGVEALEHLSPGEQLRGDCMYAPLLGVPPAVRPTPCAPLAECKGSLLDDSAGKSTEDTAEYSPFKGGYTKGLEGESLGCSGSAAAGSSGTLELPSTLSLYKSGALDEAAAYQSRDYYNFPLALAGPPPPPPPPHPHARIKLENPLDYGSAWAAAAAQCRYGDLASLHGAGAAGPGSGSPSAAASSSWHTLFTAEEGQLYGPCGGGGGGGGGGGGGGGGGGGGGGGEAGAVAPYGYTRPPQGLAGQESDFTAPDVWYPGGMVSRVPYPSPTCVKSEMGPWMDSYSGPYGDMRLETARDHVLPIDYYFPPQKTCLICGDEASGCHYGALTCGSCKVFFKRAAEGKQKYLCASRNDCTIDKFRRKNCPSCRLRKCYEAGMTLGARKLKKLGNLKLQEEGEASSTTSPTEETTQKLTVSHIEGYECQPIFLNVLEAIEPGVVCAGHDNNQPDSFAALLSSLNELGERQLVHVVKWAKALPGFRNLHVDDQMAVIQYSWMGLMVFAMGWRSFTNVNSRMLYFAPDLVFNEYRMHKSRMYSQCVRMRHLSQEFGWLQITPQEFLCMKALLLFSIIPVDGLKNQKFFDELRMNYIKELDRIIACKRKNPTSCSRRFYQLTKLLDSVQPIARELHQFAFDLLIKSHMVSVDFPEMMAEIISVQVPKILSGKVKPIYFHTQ
Experimental: Measurement of Protein Expression of the Androgen Receptor
The cells of the LNCaP line are seeded at a rate of 2.5 million of cells per 10 cm Petri dish and maintained in 8 ml RPMI-1640 for 4 days. After 4 days incubation, 4 ml of medium were removed from the Petri dish and 5 ml fresh medium was added carefully. 1 ml of compounds 10-fold diluted in complete medium at concentrations from 3×10^-6 M to 10^-8 M. Cells were treated with the compounds for additional 3 days. The whole cell protein was extracted by Nuclear Extract kit and quantitated by the Bradford Protein Assay. The effect of compounds on AR levels in LNCaP cells was then determined by an AR ELISA kit.

[6] = tested on: DU145; test: Anti-proliferative activity on DU145 in complete medium; format: cell-based; details: Homo sapiens, DU-145, 144 h incubation, Cell-Titer-Glow, line does not express androgen receptor
Experimental: 2. Anti-Proliferative Activity on DU145 in Complete Medium
as §1, with “It is used to evaluate the selectivity of the compounds for androgen receptor expressing cells. No activity of the compounds is expected. •” for “3. Anti-Proliferative Activity on VCaP in Complete Medium •”, “the DU145” for “the VCaP”, “(ATCC HTB-81)” for “(ATCC CRL-2876)”, “at 800” for “at 20000”, “for 6” for “for 9”

Structure (SMILES) | effect on growth of human prostate cancer cells in culture [1] | IC50 [2] | solubility at 1 h [3] | IC50 [4] | DC50 [5] | IC50 [6]
CC1(C)NC(=O)N(c2ccc([N+](=O)[O-])c(C(F)(F)F)c2)C1=O [nilutamide] | capable of stimulating the growth | – | – | – | – | –
CC1(C)C(=O)N(c2ccc(S(C)(=O)=O)c(C(F)(F)F)c2)C(=O)N1C/C=C\CN1C(=O)N(c2cnc(C#N)c(C(F)(F)F)c2)C(=O)C1(C)C [Example 2, (Z)-5-(3-(4-(5,5-dimethyl-3-(4-(methylsulfonyl)-3-(trifluoromethyl)phenyl)-2,4-dioxoimidazolidin-1-yl)but-2-en-1-yl)-4,4-dimethyl-2,5-dioxoimidazolidin-1-yl)-3-(trifluoromethyl)picolinonitrile] | – | 1.59 µM | 0.14 µM (≈ 0.0981 µg/mL) | 1.05 µM | 0.946 µM | > 10 µM
CC1(C)C(=O)N(c2ccc(C#N)c(C(F)(F)F)c2)C(=O)N1C/C=C\CN1CC(=O)N(c2ccc(S(C)(=O)=O)c(C(F)(F)F)c2)C1=O [Example 3, (Z)-4-(4,4-dimethyl-3-(4-(3-(4-(methylsulfonyl)-3-(trifluoromethyl)phenyl)-2,4-dioxoimidazolidin-1-yl)but-2-en-1-yl)-2,5-dioxoimidazolidin-1-yl)-2-(trifluoromethyl)benzonitrile] | – | 1.12 µM | 0.53 µM (≈ 0.356 µg/mL) | – | – | > 10 µM
CC1(C)C(=O)N(c2ccc(C#N)c(C(F)(F)F)c2)C(=O)N1C/C=C\CN1C(=O)N(c2ccc(S(C)(=O)=O)c(C(F)(F)F)c2)C(=O)C1(C)C [Example 1, (Z)-4-(3-(4-(5,5-dimethyl-3-(4-(methylsulfonyl)-3-(trifluoromethyl)phenyl)-2,4-dioxoimidazolidin-1-yl)but-2-en-1-yl)-4,4-dimethyl-2,5-dioxoimidazolidin-1-yl)-2-(trifluoromethyl)benzonitrile] | – | 0.313 µM | 2.66 µM (≈ 1.86 µg/mL) | 0.551 µM | 0.123 µM | > 10 µM
